Laboratory results reported in patent publication US8940705B2, “Method of treating disease and selectively modulating transcriptional regulation by a glucocorticoid receptor by administering aclacinomycin and dexamethasone” (The Regents of the University of California, priority 2009, dated 2015).

Key:
Assay type in all cases: cell-based
GR [1] = target: T1, GR (Homo sapiens, UniProt P04150); test: Multi-promoter fluorescent protein reporter compound screen for GR modulators; design: endogenous in cells; host or cells: A549; details: A549 cells, library compounds 2.5 μM with dex 100 nM; reporter fluorescence relative to plate mean
T1 sequence (P04150 1-777): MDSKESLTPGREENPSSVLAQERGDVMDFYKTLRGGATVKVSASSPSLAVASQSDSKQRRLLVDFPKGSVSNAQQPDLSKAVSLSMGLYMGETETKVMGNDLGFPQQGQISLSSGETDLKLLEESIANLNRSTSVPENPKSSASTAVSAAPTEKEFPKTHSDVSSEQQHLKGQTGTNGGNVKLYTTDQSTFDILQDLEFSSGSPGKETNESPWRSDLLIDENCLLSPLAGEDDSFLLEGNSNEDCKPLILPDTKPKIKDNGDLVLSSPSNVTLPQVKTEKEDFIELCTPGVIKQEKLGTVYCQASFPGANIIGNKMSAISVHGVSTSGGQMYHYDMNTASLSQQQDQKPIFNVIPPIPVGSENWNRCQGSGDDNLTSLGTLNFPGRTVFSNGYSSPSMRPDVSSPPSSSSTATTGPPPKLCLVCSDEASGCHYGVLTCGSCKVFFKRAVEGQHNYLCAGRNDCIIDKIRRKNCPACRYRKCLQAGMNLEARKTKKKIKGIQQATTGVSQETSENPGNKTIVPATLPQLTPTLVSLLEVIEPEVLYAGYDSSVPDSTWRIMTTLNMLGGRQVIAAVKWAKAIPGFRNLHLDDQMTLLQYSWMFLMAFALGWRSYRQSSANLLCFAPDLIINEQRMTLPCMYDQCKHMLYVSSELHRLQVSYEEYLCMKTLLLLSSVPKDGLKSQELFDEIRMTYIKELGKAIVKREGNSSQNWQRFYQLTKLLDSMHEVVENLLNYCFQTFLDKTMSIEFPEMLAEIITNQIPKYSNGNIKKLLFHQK
Description: Compound Screen. A549 cells were transfected with an equal mixture of pENaC-CFP, pGILZ-YFP, pFKBP5-OFP (1.3 μg each), or with pSV40-ChFP (4 μg). The next day, cells were mixed (˜1.8×10^4 of the cells triple-transfected with pENaC-CFP, pGILZ-YFP, pFKBP5-OFP; ˜2×10^3 cells transfected with pSV40-ChFP) and replated into 96 well plates (Costar 3603). 2 hours later, library compounds (2.5 μM) and dex (100 nM) were added using a Biomek robot. The following day, cells were fixed for 4 minutes in 4% paraformaldehyde and fluorescence was measured sequentially for each reporter using a Safire plate reader (Tecan). Hits were scored based on the mean and standard deviation (s.d.) of the experimental wells on each plate. Criteria for a hit were if one reporter was more than 1.5×s.d. from the mean in duplicate, or if two reporters were more than 0.8×s.d. from the mean in duplicate. If the control SV40-ChFP was more than 2×s.d. from the mean in a single plate, or 0.8×s.d. in duplicate plates (in the same direction as the GR reporters), the well was not scored as a hit.
We used the system of Example 1 to screen a library of 1040 natural products and FDA-approved drugs for modulators of GR signaling (Abbott, A. Nature 417:109). The screen design is outlined in FIG. 2. The pENaC-CFP, pGILZ-YFP, and pFKBP5-OFP reporters indicated GR signaling, while pSV40-mCh, an internal control, excluded non-specific transcription inhibitors and toxins. We screened the library in duplicate in the presence of saturating dex (100 nM). Z′, a function that reflects the ability to discriminate between control and experimental wells (Zhang, J. H. et al., J Biomol Screen 4:67-73 (1999)), was determined for dex treatment of each GR reporter. The Z′ values were: Z′(ENAC-CFP)=0.68; Z′(GILZ-YFP)=0.64; and Z′(FKBP5-OFP)=0.66. These indicate that the screen should efficiently identify compounds that increase or decrease fluorescence from any of the three experimental promoters (Zhang, J. H. et al., J Biomol Screen 4:67-73 (1999)).

GR [2] = target: T1, GR; test: Luciferase assays, GR-responsive reporters, A549 cells; design: endogenous in cells; host or cells: A549; details: for Dose dependent: whether the drug acted dose-dependently on GR-luciferase reporters; for GR activity (GR-mediated induction of pENaC-luc reporter): pENaC-luc and pSV40-rl
Description: (§1) Transfections. The day prior to transfection, ˜3×10^5 cells were plated in 6-well dishes. Transfections used Lipofectamine 2000 (Invitrogen). 4 μg of total plasmid DNA were used for each transfection. For A549 cells, 500 μL of DNA/lipofectamine complex was added to 1.5 ml of DMEM with pen/strep and 5% FBS. For U2OS cells, 500 μl of DNA/lipofectamine complex was added to 1.5 ml of Optimem. After 3-4 hours of incubation, media was replaced with standard growth media.
(§2) Luciferase assays. Luciferase assays used the Promega Dual-Luciferase Reporter system. Briefly, cells were transfected with various firefly luciferase plasmids and pSV40-RL at a ratio of 10:1. The day after transfection, cells were split into 96-well dishes and treated with dex and various drugs. Cells were harvested in 50 μl 1XPLB (Promega) 12-18 hr after drug treatment and luciferase assays were performed on 10 μl of lysate. Luminscence was detected using an Ultra Evolution plate reader (Tecan).

GR [3] = test: qPCR of endogenous GR target genes, cell line not distinguished (FIG. 4B, 5D); details: with dex, 24 hr
Description: (§3) Quantitative PCR. Total RNA isolation used Trizol and Pure Link (Invitrogen). […] Rpl19 expression was used for data normalization.

GR [4] = target: T2, GR (Rattus norvegicus, UniProt P06536); test: Luciferase assays, GR-responsive reporters, U2OS-GR cells; details: pENaC-luc and pSV40-rl, with dex
T2 construct: expressed in transfected cells; host or cells: U2OS-GR
T2 sequence (P06536 1-795): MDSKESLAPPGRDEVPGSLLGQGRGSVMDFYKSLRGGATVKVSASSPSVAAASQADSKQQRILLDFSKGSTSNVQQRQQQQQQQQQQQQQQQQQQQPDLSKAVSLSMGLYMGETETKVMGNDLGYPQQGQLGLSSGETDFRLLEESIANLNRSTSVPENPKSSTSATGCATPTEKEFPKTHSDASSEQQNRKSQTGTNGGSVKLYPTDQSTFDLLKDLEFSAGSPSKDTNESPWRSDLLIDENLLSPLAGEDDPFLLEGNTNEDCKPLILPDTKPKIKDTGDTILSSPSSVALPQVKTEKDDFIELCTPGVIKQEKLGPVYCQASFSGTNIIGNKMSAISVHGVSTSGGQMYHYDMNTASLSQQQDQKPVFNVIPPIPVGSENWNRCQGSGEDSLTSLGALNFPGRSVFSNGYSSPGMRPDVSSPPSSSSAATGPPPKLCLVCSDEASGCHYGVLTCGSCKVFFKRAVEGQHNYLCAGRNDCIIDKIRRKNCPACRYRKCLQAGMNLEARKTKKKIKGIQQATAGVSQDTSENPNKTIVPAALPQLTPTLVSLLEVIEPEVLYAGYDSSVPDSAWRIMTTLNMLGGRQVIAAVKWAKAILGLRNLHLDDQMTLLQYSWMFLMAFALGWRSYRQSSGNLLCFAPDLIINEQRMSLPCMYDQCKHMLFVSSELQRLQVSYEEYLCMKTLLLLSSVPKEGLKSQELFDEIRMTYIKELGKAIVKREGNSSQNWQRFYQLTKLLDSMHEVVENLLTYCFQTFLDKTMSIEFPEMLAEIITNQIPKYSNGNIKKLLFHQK
Description: as §1, §2

GR [5] = target: T1, GR; test: qPCR of endogenous GR target genes, A549 cells; design: endogenous in cells; host or cells: A549; details: with dex, RPL19 reference
Description: as §3

Row | Molecule | ENaC-CFP (GR [1]) | FKBP5-OFP (GR [1]) | GILZ-YFP (GR [1]) | Dose dependent (GR [2]) | GR activity (GR-mediated induction of pENaC-luc reporter) (GR [2]; A549 cells, with dex) | further results
1 | C[N+]1(C)CCCC(OC(=O)C(O)(c2ccccc2)c2ccccc2)C1 (stereo not shown) [Mepenzolate] | No effect | ↓ (0.8 to 2 s.d. less than the mean (↓)) | ↓ (0.8 to 2 s.d. less than the mean (↓)) | no |  | 
2 | O=C1C=CC(=C(c2ccc(O)cc2)c2ccc(O)cc2)C=C1 [Rosolic Acid] | ↓ (0.8 to 2 s.d. less than the mean (↓)) | ↓ (0.8 to 2 s.d. less than the mean (↓)) | No effect | yes |  | expression of endogenous GR target genes (qPCR), overall (GR [3]): selectively modulated endogenous GR target genes; induction of endogenous ENaC (qPCR) (GR [3]): inhibited; induction of endogenous FKBP5 (qPCR) (GR [3]): inhibited; induction of endogenous GILZ (qPCR) (GR [3]): failed to inhibit; Dose dependent (GR [2]; listed as rosolic acid): dose dependent effects
3 | O=C1c2c(O)ccc(O)c2C(=O)c2c(NCCNCCO)ccc(NCCNCCO)c21 [Mitoxantrone] | ↓↓↓ (more than 2 standard deviations (s.d.) less than the mean (↓↓↓)) | ↓↓↓ (more than 2 standard deviations (s.d.) less than the mean (↓↓↓)) | ↓↓↓ (more than 2 standard deviations (s.d.) less than the mean (↓↓↓)) | yes | antagonists of GR | GR activity (luciferase reporter) (GR [4]): inhibited GR
4 | CS(=O)(=O)c1ccc([C@@H](O)[C@@H](CO)NC(=O)C(Cl)Cl)cc1 [Thiamphenicol] | No effect | ↑↑↑^e (more than 2 s.d. greater than the mean (↑↑↑)) | No effect | no |  | 
5 | O=c1oc2c(O)c(O)cc3c(=O)oc4c(O)c(O)cc1c4c23 [Ellagic Acid] | No effect | ↓ (0.8 to 2 s.d. less than the mean (↓)) | ↓ (0.8 to 2 s.d. less than the mean (↓)) | no |  | 
6 | a amanitin |  |  |  |  |  | effect on GR-dependent reporter pENaC-luc compared with GR-independent constitutive reporter pSV40-rl (GR [2]; A549 cells, with dex): reduced the activity of both reporters to similar extents
7 | COC(=O)[C@H]1[C@H]2C[C@@H]3c4[nH]c5cc(OC)ccc5c4CCN3C[C@H]2C[C@@H](OC(=O)c2cc(OC)c(OC)c(OC)c2)[C@@H]1OC [Reserpine] | ↑ (0.8 to 2 s.d. greater than the mean (↑)) | ↑ (0.8 to 2 s.d. greater than the mean (↑)) | ↑ (0.8 to 2 s.d. greater than the mean (↑)) | no |  | 
8 | O=C(/C=C/c1ccccc1)/C=C/c1ccccc1O [NSC636788] |  |  |  |  | dose dependently reduced GR activity | 
9 | CCCCCC(=O)O[C@]1(C(C)=O)CC[C@H]2[C@@H]3CCC4=CC(=O)CC[C@]4(C)[C@H]3CC[C@@]21C [Hpg. caproate, Hydroxyprogesterone caproate] | No effect | ↓↓↓ (more than 2 standard deviations (s.d.) less than the mean (↓↓↓)) | ↓↓↓ (more than 2 standard deviations (s.d.) less than the mean (↓↓↓)) | yes |  | expression of endogenous GR target genes (qPCR), overall (GR [3]): selectively modulated endogenous GR target genes; induction of endogenous ENaC (qPCR) (GR [3]): no impact; induction of endogenous FKBP5 (qPCR) (GR [3]): reduced induction; induction of endogenous GILZ (qPCR) (GR [3]): reduced induction; Dose dependent (GR [2]; listed as Hpg): dose dependent effects
10 | O=C1C=CC(=C(c2ccccc2)c2ccc(O)cc2)C=C1 [NSC55861] |  |  |  |  | dose dependently reduced GR activity | 
11 | COc1cccc2c1C(=O)c1c(O)c3c(c(O)c1C2=O)C[C@@](O)(C(C)=O)C[C@@H]3O[C@H]1C[C@H](N)[C@H](O)[C@H](C)O1 [daunorubicin] |  |  |  |  | inhibited GR | 
12 | Cc1cc(C2CCCCC2)n(O)c(=O)c1 [Ciclopirox olamine] | ↓^c (0.8 to 2 s.d. less than the mean (↓)) | no effect | ↓ (0.8 to 2 s.d. less than the mean (↓)) | dose dependent effects and yes |  | expression of endogenous GR target genes (qPCR), overall (GR [3]): general GR antagonist
13 | CC[C@@]1(O)C[C@H](O[C@H]2C[C@H](N(C)C)[C@H](O[C@H]3C[C@@H]4O[C@H]5CC(=O)[C@H](C)O[C@H]5O[C@@H]4[C@H](C)O3)[C@H](C)O2)c2c(cc3c(c2O)C(=O)c2c(O)ccc(O)c2C3=O)[C@H]1C(=O)OC [Cin B, Cinerubin (Cin) B] |  |  |  |  | potently inhibited GR activity | expression of endogenous GR target genes (relative mRNA, qPCR) (GR [5]): inhibited GR at the tested promoters
14 | COc1cccc2c1C(=O)c1c(O)c3c(c(O)c1C2=O)C[C@@](O)(C(=O)CO)C[C@@H]3O[C@H]1C[C@H](N)[C@H](O)[C@H](C)O1 [Doxorubicin] |  |  |  |  | inhibited GR | 
